# Measured values from the Kinase Knowledgebase extract (Sharma et al. 2016).
# Molecular target: CDK2 (human) (UniProt P24941)
# Assay: Enzyme Assay
row,Compound,Ki [nM]
1,Cn1cnc(NC(=O)CCOc2ccc3c(=O)[nH][nH]c3c2)c1,< 1000
2,Cc1cnc(NCCC(=O)Nc2ccc3c(=O)[nH][nH]c3c2)s1,< 1000
3,Cn1cnc(NC(=O)CCCc2ccc3c(=O)[nH][nH]c3c2)c1,< 1000
4,Cn1cnc(NC2CCC(Oc3ccc4c(=O)[nH][nH]c4c3)C2)c1 (centres undefined),< 1000
5,Cc1cnc(NC2CCCC(SCc3ccc4c(=O)[nH][nH]c4c3)C2)s1 (centres undefined),< 1000
6,O=C(CC(=O)Nc1cc(C2CC2)[nH]n1)Nc1ccc2c(=O)[nH][nH]c2c1,< 1000
7,Cn1cnc(NCCC(Cc2ccccc2)Nc2ccc3c(=O)[nH][nH]c3c2)c1 (centres undefined),< 1000
8,O=c1[nH][nH]c2cc(OC3CCCC(Nc4ccccn4)C3)ccc12 (centres undefined),< 1000
9,O=c1[nH][nH]c2cc(NC3CCC(Nc4cc(C5CC5)[nH]n4)C3)ccc12 (centres undefined),< 1000
10,O=C1CCCN(c2cc(-c3cc4c(=O)[nH][nH]c4cc3Cl)nc(Nc3n[nH]c4ccc(F)cc34)n2)C1,< 1000
11,Cc1cnc(NC2COCC(C(C)(C)c3ccc4c(=O)[nH][nH]c4c3)C2)s1 (centres undefined),< 1000
12,O=c1[nH][nH]c2cc(OCC3CCCC3Nc3cc(C4CC4)[nH]n3)ccc12 (centres undefined),< 1000
13,O=c1[nH][nH]c2cc(NCCONc3ccccn3)ccc12,< 1000
14,O=C(CCCc1ccc2c(=O)[nH][nH]c2c1)Nc1nccnn1,< 1000
15,Cn1cnc(NCCC(=O)Nc2ccc3c(=O)[nH][nH]c3c2)c1,< 1000
16,O=c1[nH][nH]c2ccc(-c3nc(Nc4n[nH]c5c4CCCC5)c4ccccc4n3)c(C(F)(F)F)c12,< 1000
17,O=c1[nH][nH]c2ccc(-c3nnc(C4CCCCC4)c(Nc4n[nH]c5ccc(F)cc45)n3)c(C(F)(F)F)c12,< 1000

row,Compound,Ki [nM]
1,Cc1cnc(NC2CCC(Sc3ccc4c(=O)[nH][nH]c4c3)C2)s1 (centres undefined),< 1000
2,O=c1[nH][nH]c2cc(NC3COCC(Nc4nccnn4)C3)ccc12 (centres undefined),< 1000
3,O=c1[nH][nH]c2cc(CCCC(Nc3ccccn3)c3ccccc3)ccc12 (centres undefined),< 1000
4,Cn1cnc(NC2CCCC(Sc3ccc4c(=O)[nH][nH]c4c3)C2)c1 (centres undefined),< 1000
5,O=c1[nH][nH]c2ccc(-c3nc4c(c(Nc5n[nH]c6ccc(F)cc56)n3)CCC4)c(C(F)(F)F)c12,< 1000
6,O=c1[nH][nH]c2cc(NCCONc3cc(C4CC4)[nH]n3)ccc12,< 1000
7,O=c1[nH][nH]c2cc(OC3CCC(Nc4cc(C5CC5)[nH]n4)C3)ccc12 (centres undefined),< 1000
8,O=c1[nH][nH]c2ccc(C3CCCC(Nc4nccnn4)C3)cc12 (centres undefined),< 1000
9,O=c1[nH][nH]c2cc(OCCC(Nc3ccccn3)c3ccccc3)ccc12 (centres undefined),< 1000
10,O=c1[nH][nH]c2cc(CSc3cc(Nc4n[nH]c5ccccc45)c4ccccc4n3)ccc12,< 1000
11,O=c1[nH][nH]c2ccc(C3CCCC(Nc4cc(C5CC5)[nH]n4)C3)cc12 (centres undefined),< 1000
12,Cc1cnc(NC(=O)CCNc2ccc3c(=O)[nH][nH]c3c2)s1,< 1000
13,Cn1cnc(NC(CCCc2ccc3c(=O)[nH][nH]c3c2)c2ccccc2)c1 (centres undefined),< 1000
14,O=c1[nH][nH]c2cc(NOCCNc3nccnn3)ccc12,< 1000
15,CC1CCN(c2nc(Nc3n[nH]c4ccccc34)nc(-c3cc4c(=O)[nH][nH]c4cc3C(F)(F)F)n2)C1 (centres undefined),< 1000
16,O=c1[nH][nH]c2ccc(-c3nc(Nc4n[nH]c5ccccc45)c4cccnc4n3)c(C(F)(F)F)c12,< 1000

# Other lines, results leading:
row,Ki [nM],Compound
1,< 1000,O=c1[nH][nH]c2cc(Oc3cc4ccccc4c(Nc4n[nH]c5ccccc45)n3)ccc12
2,< 1000,CN(C)CCOCc1cc(Nc2n[nH]c3ccccc23)nc(Sc2ccc3c(=O)[nH][nH]c3c2)n1
3,< 1000,O=c1[nH][nH]c2cc(Nc3ncc(Nc4ccccc4)c(Nc4cc(C5CC5)[nH]n4)n3)ccc12
4,< 1000,Cc1cc(Nc2cc(C)[nH]n2)nc(COc2ccc3[nH][nH]c(=O)c3c2)n1
5,< 1000,O=c1[nH][nH]c2cc([C@@H]3C[C@H]3c3nc(Nc4n[nH]c5ccc(F)cc45)c4ccccc4n3)ccc12
6,< 1000,Cc1cc(Nc2cc(-c3ccco3)[nH]n2)nc(-c2ccc3[nH][nH]c(=O)c3c2)n1
7,< 1000,O=c1[nH][nH]c2cc(Nc3nc(Nc4cc(C5CC5)[nH]n4)cc(Oc4ccccc4)n3)ccc12
8,< 1000,COCCNc1cc(Nc2cc(C)[nH]n2)nc(OCc2ccc3c(=O)[nH][nH]c3c2)n1
9,< 1000,CCc1cc(Nc2nc(Nc3ccc4c(=O)[nH][nH]c4c3)nc3ccc(-c4ccccc4)cc23)n[nH]1
10,< 1000,O=c1[nH][nH]c2cc(Nc3ncc([N+](=O)[O-])c(Nc4cc(C5CC5)[nH]n4)n3)ccc12
11,< 1000,COCCNc1cc(Nc2cc(C)[nH]n2)nc(SCc2ccc3c(=O)[nH][nH]c3c2)n1
12,< 1000,COCC(C)(C)c1cc(Nc2cc(C)[nH]n2)nc(Sc2ccc3c(=O)[nH][nH]c3c2)n1
13,< 1000,Cc1cc(Nc2cc(-c3ccccc3C)nc(Sc3ccc4c(=O)[nH][nH]c4c3)n2)n[nH]1
14,< 1000,Cc1cc(Nc2cc(CSc3ccc4c(=O)[nH][nH]c4c3)nc3ccccc23)n[nH]1
15,< 1000,COCc1cc(Nc2cc(C)[nH]n2)nc(Nc2ccc3c(=O)[nH][nH]c3c2)n1
16,< 1000,Cc1cc(Nc2cc(-c3cccc([N+](=O)[O-])c3)nc(Nc3ccc4c(=O)[nH][nH]c4c3)n2)n[nH]1
17,< 1000,Cc1cc(Nc2cc(-c3ccccc3)[nH]n2)nc(Nc2ccc3c(=O)[nH][nH]c3c2)n1
18,< 1000,N#Cc1cc(Nc2n[nH]c3ccccc23)nc(-c2ccc3[nH][nH]c(=O)c3c2C(F)(F)F)n1

row,Ki [nM],Compound
1,< 1000,O=c1[nH][nH]c2cc(Sc3nc(Nc4cc(C5CC5)[nH]n4)c4ccccc4n3)ccc12
2,< 1000,O=c1[nH][nH]c2cc(Sc3nc(Nc4cc(C5CC5)[nH]n4)cc(-c4ccccc4)n3)ccc12
3,< 1000,Cc1cc(Nc2cc(N3CCCC3)nc(SCc3ccc4c(=O)[nH][nH]c4c3)n2)n[nH]1
4,< 1000,O=c1[nH][nH]c2cc(C(F)(F)F)c(-c3nc4c(c(Nc5n[nH]c6ccc(F)cc56)n3)OCCC4)cc12
5,< 1000,Cc1cc(Nc2nc(Nc3ccc4c(=O)[nH][nH]c4c3)nc3c2CCCCC3)n[nH]1
6,< 1000,O=c1[nH][nH]c2cc(Nc3nc(Cl)nc(Nc4cc(C5CC5)[nH]n4)n3)ccc12
7,< 1000,O=c1[nH][nH]c2cc(Cl)c(-c3nc(Nc4n[nH]c5ccc(F)cc45)c4cnoc4n3)cc12
8,< 1000,Cc1cc(Nc2cc(-c3ccccc3C)nc(Oc3ccc4c(=O)[nH][nH]c4c3)n2)n[nH]1
9,< 1000,C#Cc1c(-c2nc(Nc3n[nH]c4ccc(F)cc34)c3ccccc3n2)ccc2[nH][nH]c(=O)c12
10,< 1000,O=C(NC1CC1)c1cc(Nc2nc(-c3ccc4[nH][nH]c(=O)c4c3)nc3ccccc23)n[nH]1
11,< 1000,COc1cccc2c(Nc3cc(C)[nH]n3)nc(Sc3ccc4c(=O)[nH][nH]c4c3)nc12
12,< 1000,Cc1cc(Nc2cc(-c3ccco3)[nH]n2)nc(COc2ccc3[nH][nH]c(=O)c3c2)n1
13,< 1000,Cc1nc(Oc2ccc3c(=O)[nH][nH]c3c2)nc(Nc2cc(C3CC3)[nH]n2)c1C
14,< 1000,O=c1[nH][nH]c2cc(C(F)(F)F)c(-c3cc4cccnc4c(Nc4n[nH]c5ccccc45)n3)cc12
15,< 1000,C#Cc1c(-c2nc(Nc3n[nH]c(C)n3)c3ccccc3n2)ccc2[nH][nH]c(=O)c12
16,< 1000,O=c1[nH][nH]c2ccc(CNc3nc(Nc4cc(C5CC5)[nH]n4)cc(-c4ccccc4)n3)cc12
17,< 1000,CCc1cc(Nc2cc(C)[nH]n2)nc(C(C)(C)c2ccc3c(=O)[nH][nH]c3c2)n1
18,< 1000,O=c1[nH][nH]c2cc(Sc3cccc(Nc4cc(C5CC5)[nH]n4)n3)ccc12
